Common to all, as to assay type: biochemical
In one assay the target is human α-thrombin (Homo sapiens, UniProt P00734). Description: Enzymatic Assay for Thrombin (Boc-VPR-AMC substrate).
The target in a further assay is MASP-2 (CCP1-CCP2-SP) (Homo sapiens, UniProt O00187). Description: Enzymatic Assay for MASP-2 (fluorogenic substrate).
Another assay addresses mMASP-2 (Mus musculus, UniProt Q91WP0). As to the kind of experiment: Enzymatic assay for mMASP-2.
[1] abbreviates: human α-thrombin, Boc-VPR-AMC substrate.

Counter-ions that a name gives are not always drawn. Like-named read-outs stand apart in the source and are kept apart here. Some results are limits rather than exact numbers.

The values below come from patent publication US20260193179A9 (priority 2018, published 2026).

Sequence of MASP-2 (CCP1-CCP2-SP) (O00187 445-686): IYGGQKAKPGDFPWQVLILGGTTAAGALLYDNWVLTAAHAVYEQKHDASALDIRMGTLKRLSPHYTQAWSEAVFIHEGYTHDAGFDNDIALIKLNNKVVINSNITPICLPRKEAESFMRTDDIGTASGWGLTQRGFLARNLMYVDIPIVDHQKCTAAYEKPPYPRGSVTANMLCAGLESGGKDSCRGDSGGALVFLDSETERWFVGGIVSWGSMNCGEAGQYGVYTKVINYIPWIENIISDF
Sequence of MASP-2 (CCP1-CCP2-SP) (O00187 298-444): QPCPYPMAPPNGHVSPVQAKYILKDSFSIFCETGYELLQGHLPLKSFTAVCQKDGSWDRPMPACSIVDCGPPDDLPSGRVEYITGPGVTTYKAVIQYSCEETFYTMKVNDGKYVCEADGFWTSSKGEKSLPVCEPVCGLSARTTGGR
Sequence of mMASP-2 (Q91WP0 20-685): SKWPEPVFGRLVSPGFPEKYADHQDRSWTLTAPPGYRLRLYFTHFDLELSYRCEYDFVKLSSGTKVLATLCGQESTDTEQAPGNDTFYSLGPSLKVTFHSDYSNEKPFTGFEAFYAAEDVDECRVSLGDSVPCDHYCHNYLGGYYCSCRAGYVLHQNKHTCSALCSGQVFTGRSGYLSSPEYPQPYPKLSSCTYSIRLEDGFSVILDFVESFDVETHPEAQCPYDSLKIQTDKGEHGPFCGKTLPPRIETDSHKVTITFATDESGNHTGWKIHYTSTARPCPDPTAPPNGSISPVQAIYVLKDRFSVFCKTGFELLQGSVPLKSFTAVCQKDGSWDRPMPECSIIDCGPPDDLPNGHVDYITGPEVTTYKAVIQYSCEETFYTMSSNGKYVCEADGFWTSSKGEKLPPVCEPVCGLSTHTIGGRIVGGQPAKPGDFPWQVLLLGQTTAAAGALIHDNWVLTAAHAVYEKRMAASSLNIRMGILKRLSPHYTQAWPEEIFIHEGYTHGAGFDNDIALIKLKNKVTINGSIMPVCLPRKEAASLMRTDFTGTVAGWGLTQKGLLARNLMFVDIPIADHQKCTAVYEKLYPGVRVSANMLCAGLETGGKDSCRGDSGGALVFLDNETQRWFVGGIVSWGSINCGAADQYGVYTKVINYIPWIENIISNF

Take `Cc1nc(N)ccc1CNC(=O)[C@H](CCC(N)=O)NC(=O)[C@H](N)CCc1ccccc1` [compound 1376, (S)—N^1-((6-Amino-2-methylpyridin-3-yl)methyl)-2-((R)-2-amino-4-phenylbutanamido)pentanediamide]: the values for the Ki on human α-thrombin (setting [1]), on MASP-2 (CCP1-CCP2-SP) and on mMASP-2 were greater than 25 µM, 0.5 to 2.5 µM and greater than 25 µM, respectively.
In the case of `C[C@H](NC(=O)[C@@H](CCc1ccccc1)NCc1ccc(C(=O)N2CCOCC2)cc1)C(=O)NCc1ccc(C(=N)N)cc1` [compound 1153], the Ki at human α-thrombin and at MASP-2 (CCP1-CCP2-SP) was less than 0.5 µM throughout.
As for `C[C@H](NC(=O)[C@H](N)CCc1ccccc1)C(=O)NCc1cc(Cl)ccc1C#N` [compound 1313, Trifluoroacetate salt], the inhibitory constant (Ki) – broadly, the dissociation constant of the complex between target and ligand, obtained from inhibition or displacement – is 10 to 25 µM at human α-thrombin (setting [1]), 2.5 to 10 µM at MASP-2 (CCP1-CCP2-SP) and greater than 25 µM on mMASP-2.
